Test results from PubChem BioAssay AID2060909 (Molecular Pharmacology Branch, DTP, NCI, 2025).
Each block holds one compound with its values, some of them ahead of it.

Tested on: 362531-283-R-J2-PDC complex spheroid viability
Test: Anticancer human tumor 362531-283-R-J2-PDC patient-derived colon adenocarcinoma cell line growth inhibition [RAS]
Conditions: for IC50: curve of first compound; for viability, T/C: stronger effect = lower value
Method in brief: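 Agents were tested in combination matrices in half-log decrements from a top concentration at or near clinical Cmax (10 microM if undetermined). Targets were multi-cell spheroids of tumour lines plus HUVEC and MSC stromal cells.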

[1] = second compound 0.000949 µM, first compound 0.0316 µM
[2] = second compound 0.000949 µM, first compound 0.1 µM
[3] = second compound 0.000949 µM, first compound 0.316 µM
[4] = second compound 0.000949 µM, first compound 1 µM
[5] = second compound 0.000949 µM, first compound 3.16 µM
[6] = second compound 0.000949 µM, first compound 10 µM
[7] = second compound 0.003 µM, first compound 0.0316 µM
[8] = second compound 0.003 µM, first compound 0.1 µM
[9] = second compound 0.003 µM, first compound 0.316 µM
[10] = second compound 0.003 µM, first compound 1 µM
[11] = second compound 0.003 µM, first compound 3.16 µM
[12] = second compound 0.003 µM, first compound 10 µM
[13] = second compound 0.00949 µM, first compound 0.0316 µM
[14] = second compound 0.00949 µM, first compound 0.1 µM
[15] = second compound 0.00949 µM, first compound 0.316 µM
[16] = second compound 0.00949 µM, first compound 1 µM
[17] = second compound 0.00949 µM, first compound 3.16 µM
[18] = second compound 0.00949 µM, first compound 10 µM
[19] = second compound 0.03 µM, first compound 0.0316 µM
[20] = second compound 0.03 µM, first compound 0.1 µM
[21] = second compound 0.03 µM, first compound 0.316 µM
[22] = second compound 0.03 µM, first compound 1 µM
[23] = second compound 0.03 µM, first compound 3.16 µM
[24] = second compound 0.03 µM, first compound 10 µM
[25] = second compound 0.0949 µM, first compound 0.0316 µM
[26] = second compound 0.0949 µM, first compound 0.1 µM
[27] = second compound 0.0949 µM, first compound 0.316 µM
[28] = second compound 0.0949 µM, first compound 1 µM
[29] = second compound 0.0949 µM, first compound 3.16 µM
[30] = second compound 0.0949 µM, first compound 10 µM
[31] = second compound 0.3 µM, first compound 0.0316 µM
[32] = second compound 0.3 µM, first compound 0.1 µM
[33] = second compound 0.3 µM, first compound 0.316 µM
[34] = second compound 0.3 µM, first compound 1 µM
[35] = second compound 0.3 µM, first compound 3.16 µM
[36] = second compound 0.3 µM, first compound 10 µM
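Further: spheroids exposed to the agents for 7 days before readout.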
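Wherever viability, T/C is given: luminescence viability as percent of DMSO vehicle control wells.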

IC50 (second compound 0.000949 µM): > 10000 nM
IC50 (second compound 0.003 µM): > 10000 nM
IC50 (second compound 0.00949 µM): > 10000 nM
IC50 (second compound 0.03 µM): > 10000 nM
IC50 (second compound 0.0949 µM): > 10000 nM
IC50 (second compound 0.3 µM): < 31.6 nM
Structure (SMILES): CC(C)NCC(C(=O)N1CCN(c2ncnc3c2C(C)CC3O)CC1)c1ccc(Cl)cc1 (stereo not drawn) + CCn1c(-c2cc(N3CCN(C)CC3)cnc2C(C)OC)c2c3cc(ccc31)-c1csc(n1)CC(NC(=O)C1CC1C)C(=O)N1CCCC(N1)C(=O)OCC(C)(C)C2
viability, T/C [1]: 103%
viability, T/C [2]: 103%
viability, T/C [3]: 101%
viability, T/C [4]: 99.5%
viability, T/C [5]: 92.7%
viability, T/C [6]: 89.7%
viability, T/C [7]: 95.6%
viability, T/C [8]: 109%
viability, T/C [9]: 97.8%
viability, T/C [10]: 98.7%
viability, T/C [11]: 106%
viability, T/C [12]: 100%
viability, T/C [13]: 103%
viability, T/C [14]: 110%
viability, T/C [15]: 89.7%
viability, T/C [16]: 99%
viability, T/C [17]: 93.6%
viability, T/C [18]: 93.2%
viability, T/C [19]: 99.4%
viability, T/C [20]: 83.8%
viability, T/C [21]: 84.1%
viability, T/C [22]: 87.8%
viability, T/C [23]: 92.6%
viability, T/C [24]: 85.7%
viability, T/C [25]: 81.8%
viability, T/C [26]: 101%
viability, T/C [27]: 86.1%
viability, T/C [28]: 72.3%
viability, T/C [29]: 76.4%
viability, T/C [30]: 65.4%
viability, T/C [31]: 46.8%
viability, T/C [32]: 53.9%
viability, T/C [33]: 42.6%
viability, T/C [34]: 41.6%
viability, T/C [35]: 31%
viability, T/C [36]: 33.5%

IC50 (second compound 0.000949 µM): 62.7 nM
IC50 (second compound 0.003 µM): 67.9 nM
IC50 (second compound 0.00949 µM): 48.1 nM
IC50 (second compound 0.03 µM): 41.3 nM
IC50 (second compound 0.0949 µM): 18.8 nM
IC50 (second compound 0.3 µM): < 0.316 nM
Structure (SMILES): CC(C)n1nc(-c2ccc3oc(N)nc3c2)c2c(N)ncnc21 + CCn1c(-c2cc(N3CCN(C)CC3)cnc2C(C)OC)c2c3cc(ccc31)-c1csc(n1)CC(NC(=O)C1CC1C)C(=O)N1CCCC(N1)C(=O)OCC(C)(C)C2
viability, T/C (second compound 0.000949 µM, first compound 0.000316 µM): 88.2%
viability, T/C (second compound 0.000949 µM, first compound 0.001 µM): 97.4%
viability, T/C (second compound 0.000949 µM, first compound 0.00316 µM): 98.9%
viability, T/C (second compound 0.000949 µM, first compound 0.01 µM): 106%
viability, T/C [1]: 62.9%
viability, T/C [2]: 41.2%
viability, T/C (second compound 0.003 µM, first compound 0.000316 µM): 99.4%
viability, T/C (second compound 0.003 µM, first compound 0.001 µM): 102%
viability, T/C (second compound 0.003 µM, first compound 0.00316 µM): 102%
viability, T/C (second compound 0.003 µM, first compound 0.01 µM): 100%
viability, T/C [7]: 69.7%
viability, T/C [8]: 40%
viability, T/C (second compound 0.00949 µM, first compound 0.000316 µM): 102%
viability, T/C (second compound 0.00949 µM, first compound 0.001 µM): 111%
viability, T/C (second compound 0.00949 µM, first compound 0.00316 µM): 93.6%
viability, T/C (second compound 0.00949 µM, first compound 0.01 µM): 94.7%
viability, T/C [13]: 57.6%
viability, T/C [14]: 35.9%
viability, T/C (second compound 0.03 µM, first compound 0.000316 µM): 89.5%
viability, T/C (second compound 0.03 µM, first compound 0.001 µM): 86.5%
viability, T/C (second compound 0.03 µM, first compound 0.00316 µM): 89.6%
viability, T/C (second compound 0.03 µM, first compound 0.01 µM): 92%
viability, T/C [19]: 54%
viability, T/C [20]: 36.8%
viability, T/C (second compound 0.0949 µM, first compound 0.000316 µM): 82.2%
viability, T/C (second compound 0.0949 µM, first compound 0.001 µM): 84.1%
viability, T/C (second compound 0.0949 µM, first compound 0.00316 µM): 77.1%
viability, T/C (second compound 0.0949 µM, first compound 0.01 µM): 63.1%
viability, T/C [25]: 39%
viability, T/C [26]: 35%
viability, T/C (second compound 0.3 µM, first compound 0.000316 µM): 41.6%
viability, T/C (second compound 0.3 µM, first compound 0.001 µM): 45.7%
viability, T/C (second compound 0.3 µM, first compound 0.00316 µM): 37%
viability, T/C (second compound 0.3 µM, first compound 0.01 µM): 21.1%
viability, T/C [31]: 21.8%
viability, T/C [32]: 17.1%

IC50 (second compound 0.000949 µM): 1290 nM
IC50 (second compound 0.003 µM): 1610 nM
IC50 (second compound 0.00949 µM): 952 nM
IC50 (second compound 0.03 µM): 849 nM
IC50 (second compound 0.0949 µM): 431 nM
IC50 (second compound 0.3 µM): < 31.6 nM
Structure (SMILES): CC(Nc1ccc2c(c1)OCCn1cc(N3C(=O)OCC3C(F)F)nc1-2)C(N)=O (stereo not drawn) + CCn1c(-c2cc(N3CCN(C)CC3)cnc2C(C)OC)c2c3cc(ccc31)-c1csc(n1)CC(NC(=O)C1CC1C)C(=O)N1CCCC(N1)C(=O)OCC(C)(C)C2
viability, T/C [1]: 98.7%
viability, T/C [2]: 107%
viability, T/C [3]: 86.6%
viability, T/C [4]: 58%
viability, T/C [5]: 26.4%
viability, T/C [6]: 27.9%
viability, T/C [7]: 103%
viability, T/C [8]: 98.8%
viability, T/C [9]: 93%
viability, T/C [10]: 59.5%
viability, T/C [11]: 36.7%
viability, T/C [12]: 27.5%
viability, T/C [13]: 96.8%
viability, T/C [14]: 105%
viability, T/C [15]: 64.9%
viability, T/C [16]: 56.2%
viability, T/C [17]: 32.4%
viability, T/C [18]: 32.3%
viability, T/C [19]: 97.2%
viability, T/C [20]: 89.6%
viability, T/C [21]: 70.7%
viability, T/C [22]: 45.8%
viability, T/C [23]: 38.7%
viability, T/C [24]: 34.9%
viability, T/C [25]: 88.6%
viability, T/C [26]: 73%
viability, T/C [27]: 51.9%
viability, T/C [28]: 41.7%
viability, T/C [29]: 32.5%
viability, T/C [30]: 29.4%
viability, T/C [31]: 32.6%
viability, T/C [32]: 28.3%
viability, T/C [33]: 11.2%
viability, T/C [34]: 3.11%
viability, T/C [35]: 3.38%
viability, T/C [36]: 3.53%

IC50 (second compound 0.000949 µM): > 10000 nM
IC50 (second compound 0.003 µM): > 10000 nM
IC50 (second compound 0.00949 µM): > 10000 nM
IC50 (second compound 0.03 µM): > 10000 nM
IC50 (second compound 0.0949 µM): > 10000 nM
IC50 (second compound 0.3 µM): 3740 nM
Structure (SMILES): C[C@@H](NC(=O)c1ncnc(N)c1Cl)c1ncc(C(=O)Nc2cc(C(F)(F)F)c(Cl)cn2)s1 + CCn1c(-c2cc(N3CCN(C)CC3)cnc2C(C)OC)c2c3cc(ccc31)-c1csc(n1)CC(NC(=O)C1CC1C)C(=O)N1CCCC(N1)C(=O)OCC(C)(C)C2
viability, T/C [1]: 107%
viability, T/C [2]: 110%
viability, T/C [3]: 94.3%
viability, T/C [4]: 103%
viability, T/C [5]: 96.1%
viability, T/C [6]: 78.5%
viability, T/C [7]: 106%
viability, T/C [8]: 104%
viability, T/C [9]: 93.3%
viability, T/C [10]: 94.3%
viability, T/C [11]: 85.6%
viability, T/C [12]: 69.6%
viability, T/C [13]: 94%
viability, T/C [14]: 100%
viability, T/C [15]: 95.9%
viability, T/C [16]: 96.9%
viability, T/C [17]: 86.3%
viability, T/C [18]: 66%
viability, T/C [19]: 107%
viability, T/C [20]: 92.6%
viability, T/C [21]: 91.7%
viability, T/C [22]: 92%
viability, T/C [23]: 78%
viability, T/C [24]: 62.1%
viability, T/C [25]: 79.3%
viability, T/C [26]: 87%
viability, T/C [27]: 78.7%
viability, T/C [28]: 73.7%
viability, T/C [29]: 76.2%
viability, T/C [30]: 62.5%
viability, T/C [31]: 56.6%
viability, T/C [32]: 56.2%
viability, T/C [33]: 58.5%
viability, T/C [34]: 59.9%
viability, T/C [35]: 72%
viability, T/C [36]: 26.3%
